Our source for the EC50 values is patent US10584115B2, “Substituted pyridine and pyrazine BMI-1 inhibitors” (PTC Therapeutics, Inc., priority 2013, dated 2020).

Molecules are shown by their SMILES.

For the test, the system named is Bmi-1 protein. Nature of the test: Sandwich ELISA Assay (Bmi-1 protein level in HT-1080 cells after compound treatment). Particulars: Table 1, Bmi-1 sandwich ELISA, read-out: ELISA EC50 value for Bmi-1 protein. The format is cell-based. The gist of the method:
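HT-1080 cells exposed to compounds for 40–48 h at 37 °C (0.5% DMSO final), then lysed. Bmi-1 in lysates measured by sandwich ELISA (mouse monoclonal capture, rabbit anti-Bmi-1 detection, HRP anti-rabbit, TMB), read at OD450 with OD570 reference against a recombinant Bmi-1 standard curve (0–8000 pg/mL).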
A word on the EC50: it is the concentration that produces a half-maximal response. As for `Cc1nc(Br)cn1-c1cncc(Nc2ccc(C(F)(F)F)cc2)n1` [compound 298, 6-(4-bromo-2-methyl-1H-imidazol-1-yl)-N-[4-(trifluoromethyl)phenyl]pyrazin-2-amine], the half-maximal effective concentration (EC50) lay within 0.1 to 3 µM.

As to `Cc1nc(C)n(-c2cncc(Nc3ccc(C(F)(F)F)cc3)n2)c1Cl` [compound 299, 6-(5-chloro-2,4-dimethyl-1H-imidazol-1-yl)-N-[4-(trifluoromethyl)phenyl]pyrazin-2-amine], the EC50 fell in the range of 0.1 to 3 µM.

For the compound `Cc1cn(-c2cncc(Nc3ccc(C(F)(F)F)cc3)n2)c(C)n1` [compound 300], the EC50 was 0.01 to 0.1 µM.

For `Cc1nc2cc(F)c(F)cc2n1-c1cncc(Nc2ccc(OC(F)(F)F)c(F)c2)n1` [compound 301, 6-(5,6-difluoro-2-methyl-1H-benzimidazol-1-yl)-N-[3-fluoro-4-(trifluoromethoxy)phenyl]pyrazin-2-amine], the EC50 fell in the range of 0.1 to 3 µM.

In the case of `CNCc1nc2ccccn2c1-c1cncc(Nc2ccc(C(F)(F)F)cc2)n1` [compound 302, 6-{2-[(methylamino)methyl]imidazo[1,2-a]pyridin-3-yl}-N-[4-(trifluoromethyl)phenyl]pyrazin-2-amine], the EC50 lay in the range of 0.1 to 3 µM.

For `Cc1nc(C(F)(F)F)cn1-c1cncc(Nc2ccc(C(F)(F)F)cc2)n1` [compound 303, 6-[2-methyl-4-(trifluoromethyl)-1H-imidazol-1-yl]-N-[4-(trifluoromethyl)phenyl]pyrazin-2-amine], the EC50 lay within 0.1 to 3 µM.

Take `Cc1nc2cc(F)c(F)cc2n1-c1cncc(Nc2ccc(C(F)(F)F)nc2)n1` [compound 304, 6-(5,6-difluoro-2-methyl-1H-benzimidazol-1-yl)-N-[6-(trifluoromethyl)pyridin-3-yl]pyrazin-2-amine]: the EC50 lay within 0.01 to 0.1 µM.

Take `Cc1nc(C)n(-c2cncc(Nc3ccc(OC(F)F)cc3)n2)c1Cl` [compound 305, 6-(5-chloro-2,4-dimethyl-1H-imidazol-1-yl)-N-[4-(difluoromethoxy)phenyl]pyrazin-2-amine]: the EC50 lay in the range of 0.1 to 3 µM.

For `Cc1nc2ccccc2n1-c1cncc(Nc2ccc(OCC(F)(F)F)cc2)n1` [compound 306, 6-(2-methyl-1H-benzimidazol-1-yl)-N-[4-(2,2,2-trifluoroethoxy)phenyl]pyrazin-2-amine], the 50% effective concentration (EC50) was in the range of 0.1 to 3 µM.

As to `Cc1nc2ccccc2n1-c1cncc(Nc2ccc(OC(F)(F)C(F)F)cc2)n1` [compound 307, 6-(2-methyl-1H-benzimidazol-1-yl)-N-[4-(1,1,2,2-tetrafluoroethoxy)phenyl]pyrazin-2-amine], the EC50 was 0.1 to 3 µM.

Take `Fc1ccc2ncc(-c3cncc(Nc4ccc(C(F)(F)F)cc4)n3)n2c1` [compound 308, 6-(6-fluoroimidazo[1,2-a]pyridin-3-yl)-N-[4-(trifluoromethyl)phenyl]pyrazin-2-amine]: the EC50 is 0.1 to 3 µM.

As to `Cc1nc2ccc(F)cn2c1-c1cncc(Nc2ccc(OC(F)F)c(F)c2)n1` [compound 309, N-[4-(difluoromethoxy)-3-fluorophenyl]-6-(6-fluoro-2-methylimidazo[1,2-a]pyridin-3-yl)pyrazin-2-amine], the concentration for a half-maximal effect (EC50) fell in the range of 0.001 to 0.01 µM.

In the case of `COc1c(F)cc(Nc2cc(C#N)cc(-c3c(C)nc4ccc(F)cn34)n2)cc1F` [compound 313, 2-[(3,5-difluoro-4-methoxyphenyl)amino]-6-(6-fluoro-2-methylimidazo[1,2-a]pyridin-3-yl)pyridine-4-carbonitrile], the EC50 lay within 0.001 to 0.01 µM.

Turning to `COc1cc(Nc2cc(C#N)cc(-c3c(C)nc4ccc(F)cn34)n2)ccc1F` [compound 314, 2-[(4-fluoro-3-methoxyphenyl)amino]-6-(6-fluoro-2-methylimidazo[1,2-a]pyridin-3-yl)pyridine-4-carbonitrile], the concentration for a half-maximal effect (EC50) lay within 0.1 to 3 µM.

Consider `COc1ccc2nc(C)n(-c3cncc(Nc4ccc(C(F)(F)F)cc4)n3)c2c1` [compound 317, 6-(6-methoxy-2-methyl-1H-benzimidazol-1-yl)-N-[4-(trifluoromethyl)phenyl]pyrazin-2-amine], for which the 50% effective concentration (EC50) lay within 0.01 to 0.1 µM.

Turning to `Cc1nc(C(F)(F)F)c(C)n1-c1cncc(Nc2ccc(C(F)(F)F)cc2)n1` [compound 318, 6-[2,5-dimethyl-4-(trifluoromethyl)-1H-imidazol-1-yl]-N-[4-(trifluoromethyl)phenyl]pyrazin-2-amine], the EC50 lay in the range of 0.1 to 3 µM.

Consider `Cc1nc2cc(F)c(F)cc2n1-c1cncc(Nc2ccc(OC(F)F)c(F)c2)n1` [compound 319, N-[4-(difluoromethoxy)-3-fluorophenyl]-6-(5,6-difluoro-2-methyl-1H-benzimidazol-1-yl)pyrazin-2-amine], for which the half-maximal effective concentration (EC50) was in the range of 0.01 to 0.1 µM.

Regarding `FC(F)(F)COc1ccc(Nc2cncc(-c3c(C(F)(F)F)nc4ccccn34)n2)cc1` [compound 321, N-[4-(2,2,2-trifluoroethoxy)phenyl]-6-[2-(trifluoromethyl)imidazo[1,2-a]pyridin-3-yl]pyrazin-2-amine], the EC50 fell in the range of 0.01 to 0.1 µM.

With `FC(F)C(F)(F)Oc1ccc(Nc2cncc(-c3c(C(F)(F)F)nc4ccccn34)n2)cc1` [compound 322, N-[4-(1,1,2,2-tetrafluoroethoxy)phenyl]-6-[2-(trifluoromethyl)imidazo[1,2-a]pyridin-3-yl]pyrazin-2-amine], the concentration giving a half-maximal response (EC50) is 0.1 to 3 µM.

On to `Fc1cc(Nc2cncc(-c3c(C(F)(F)F)nc4ccccn34)n2)ccc1OC(F)F` [compound 323, N-[4-(difluoromethoxy)-3-fluorophenyl]-6-[2(trifluoromethyl)imidazo[1,2-a]pyridin-3-yl]pyrazin-2-amine], for which the concentration for a half-maximal effect (EC50) lay in the range of 0.001 to 0.01 µM.

Take `Cc1nc2ccccc2n1-c1cncc(Nc2ccc(OC(F)F)c(F)c2)n1` [compound 324, N-[4-(difluoromethoxy)-3-fluorophenyl]-6-(2-methyl-1H-benzimidazol-1-yl)pyrazin-2-amine]: the EC50 lay within 0.01 to 0.1 µM.

Turning to `Cc1nc2ncccc2n1-c1cncc(Nc2ccc(OC(F)F)c(F)c2)n1` [compound 325], the half-maximal effective concentration (EC50) was 0.01 to 0.1 µM.

As to `Cc1nc2cc(F)c(F)cc2n1-c1cc(C#N)cc(Nc2ccc(OC(F)F)c(F)c2)n1` [compound 326, 2-{[4-(difluoromethoxy)-3-fluorophenyl]amino}-6-(5,6-difluoro-2-methyl-1H-benzimidazol-1-yl)pyridine-4-carbonitrile], the EC50 was 0.01 to 0.1 µM.

Take `CCc1nc2ncc(Cl)cc2n1-c1cncc(Nc2ccc(C(F)(F)F)cc2)n1` [compound 327, 6-(6-chloro-2-ethyl-1H-imidazo[4,5-b]pyridin-1-yl)-N-[4-(trifluoromethyl)phenyl]pyrazin-2-amine]: the half-maximal effective concentration (EC50) was in the range of 0.001 to 0.01 µM.

Turning to `OCc1nc2ccc(F)cn2c1-c1cncc(Nc2ccc(C(F)(F)F)cc2)n1` [compound 328, [6-fluoro-3-(6-{[4-(trifluoromethyl)phenyl]amino}pyrazin-2-yl)imidazo[1,2-a]pyridin-2-yl]methanol], the concentration for a half-maximal effect (EC50) lay within 0.001 to 0.01 µM.

On to `CCn1nc(C(F)(F)F)c(-c2cncc(Nc3ccc(OC(F)F)cc3)n2)c1C` [compound 330, N-[4-(difluoromethoxy)phenyl]-6-[1-ethyl-5-methyl-3-(trifluoromethyl)-1H-pyrazol-4-yl]pyrazin-2-amine], for which the EC50 was in the range of 0.01 to 0.1 µM.

Turning to `CCc1nn(C)c(CC)c1-c1cncc(Nc2ccc(OC(F)F)cc2)n1` [compound 333, 6-(3,5-diethyl-1-methyl-1H-pyrazol-4-yl)-N-[4-(difluoromethoxy)phenyl]pyrazin-2-amine], the EC50 is 0.001 to 0.01 µM.

In the case of `Cc1nc2c(F)cccc2n1-c1cncc(Nc2ccc(C(F)(F)F)cc2)n1` [compound 339, 6-(4-fluoro-2-methyl-1H-benzimidazol-1-yl)-N-[4-(trifluoromethyl)phenyl]pyrazin-2-amine], the concentration giving a half-maximal response (EC50) lay within 0.01 to 0.1 µM.

Consider `Cc1nc2ccc(C(F)(F)F)cc2n1-c1cncc(Nc2ccc(C(F)(F)F)cc2)n1` [compound 340, 6-[2-methyl-6-(trifluoromethyl)-1H-benzimidazol-1-yl]-N-[4-(trifluoromethyl)phenyl]pyrazin-2-amine], for which the EC50 was in the range of 0.1 to 3 µM.

`Cc1nc(Br)c(C)n1-c1cncc(Nc2ccc(C(F)(F)F)cc2)n1` [compound 341, 6-(4-bromo-2,5-dimethyl-1H-imidazol-1-yl)-N-[4-(trifluoromethyl)phenyl]pyrazin-2-amine]: the EC50 was 0.1 to 3 µM.

For `Cc1nc(C)n(-c2cncc(Nc3ccc(C(F)(F)F)cc3)n2)c1C` [compound 342, N-[4-(trifluoromethyl)phenyl]-6-(2,4,5-trimethyl-1H-imidazol-1-yl)pyrazin-2-amine], the EC50 fell in the range of 0.01 to 0.1 µM.

Regarding `Cc1ccc2nc(C)n(-c3cncc(Nc4ccc(C(F)(F)F)cc4)n3)c2c1` [compound 343, 6-(2,6-dimethyl-1H-benzimidazol-1-yl)-N-[4-(trifluoromethyl)phenyl]pyrazin-2-amine], the EC50 is 0.001 to 0.01 µM.

For `Cc1nc2cc(Cl)ccc2n1-c1cc(C#N)cc(Nc2ccc(C(F)(F)F)cc2)n1` [compound 344, 2-(5-chloro-2-methyl-1H-benzimidazol-1-yl)-6-{[4-(trifluoromethyl)phenyl]amino}pyridine-4-carbonitrile], the EC50 was 0.1 to 3 µM.

In the case of `Cc1nc2ccc(Cl)cc2n1-c1cc(C#N)cc(Nc2ccc(C(F)(F)F)cc2)n1` [compound 345, 2-(6-chloro-2-methyl-1H-benzimidazol-1-yl)-6-{[4-(trifluoromethyl)phenyl]amino}pyridine-4-carbonitrile], the EC50 lay in the range of 0.01 to 0.1 µM.

In the case of `N#Cc1cc(Nc2ccc(OC(F)F)cc2)nc(-c2c(C3CC3)nc3ccc(F)cn23)c1` [compound 348, 2-(2-cyclopropyl-6-fluoroimidazo[1,2-a]pyridin-3-yl)-6-{[4-(difluoromethoxy)phenyl]amino}pyridine-4-carbonitrile], the half-maximal effective concentration (EC50) lay in the range of 0.001 to 0.01 µM.

Take `COc1c(F)cc(Nc2cc(C#N)cc(-c3c(C4CC4)nc4ccc(F)cn34)n2)cc1F` [compound 351, 2-(2-cyclopropyl-6-fluoroimidazo[1,2-a]pyridin-3-yl)-6-[(3,5-difluoro-4-methoxyphenyl)amino}pyridine-4-carbonitrile]: the 50% effective concentration (EC50) was 0.01 to 0.1 µM.
